This test has as its target T1, HMG-CoA synthase (Rattus norvegicus, UniProt P17425).
T1 construct: The livers from male Charles River CD rats (225-350 g) were homogenized; from tissue; host or cells: rat liver (male Charles River CD rats), 100,000 x g supernatant, ammonium sulfate and DEAE-52 fraction
T1 sequence (P17425 1-520): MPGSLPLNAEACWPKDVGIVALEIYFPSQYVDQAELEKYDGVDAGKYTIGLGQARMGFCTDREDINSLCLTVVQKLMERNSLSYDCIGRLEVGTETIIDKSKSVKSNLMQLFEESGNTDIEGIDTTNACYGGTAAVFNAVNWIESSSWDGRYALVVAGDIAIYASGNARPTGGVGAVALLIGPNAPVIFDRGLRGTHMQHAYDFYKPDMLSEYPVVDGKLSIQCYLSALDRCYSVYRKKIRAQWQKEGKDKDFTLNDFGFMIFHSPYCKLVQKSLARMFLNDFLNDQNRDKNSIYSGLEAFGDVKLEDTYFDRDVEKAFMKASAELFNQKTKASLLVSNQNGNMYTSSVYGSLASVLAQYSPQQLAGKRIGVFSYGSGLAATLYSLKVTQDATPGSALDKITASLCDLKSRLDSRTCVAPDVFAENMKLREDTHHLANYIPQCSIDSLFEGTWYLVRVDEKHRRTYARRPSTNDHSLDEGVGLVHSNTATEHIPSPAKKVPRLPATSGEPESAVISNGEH
Put plainly: HMG-CoA Synthase Inhibition Assay. Type of test: biochemical. Particulars: rat liver enzyme, 1-[14C]-acetyl-CoA incorporation. The protocol:
The intrinisic HMG-CoA synthase inhibition activity of the compounds of this invention is measured by the standard in vitro protocol described below:
The livers from male Charles River CD rats (225-350 g) were homogenized in 0.25 M sucrose which was adjusted with phenylmethylsulfonylfluoride (PMSF) and N-p-tosyl-1-lysine chloromethyl ketone (TLCK) so that the final concentration of each was […], respectively. The homogenate was centrifuged at 15,000× g for 20 minutes, the supernatant filtered through a fine nylon screen to remove most of the fat layer and recentrifuged at 100,000× g for 1 hour. This supernatant was removed and 1 M potassium phosphate, dithiothreitol (DTT) and ethylene glycolbis(β-aminoethyl ether)-N,N,N',N'-tetraacetic acid (EGTA) added to give a final concentration of 0.1 M (pH 7.2), 0.5 mM and 0.1 mM, respectively. Solid ammonium sulfate was added to 50% saturation to the protein solution, it was centrifuged at 15,000× g and the supernatant discarded. This precipitated protein could be stored at -70° C. for at least one month with very little loss of activity. The ammonium sulfate precipitate was dissolved in an minimal amount of 0.06 M potassium phosphate buffer (pH 7.2) containing 0.5 mM dithiothreitol and 0.1 mM EGTA (referred to as 0.06 M phosphate buffer) and dialyzed overnight against 2 liters of the same buffer to remove the ammonium sulfate and to inactivate HMG-CoA lyase [Clinkenbeard, et al., J. Biol. Chem. 250, 3108-3116(1975)].
The dialyzed extract was added to a column of DEAE-52 (Whatman) which had been equilibrated with 0.06 M phosphate buffer (10 mg of protein in 1 ml bed volume of the resin). The DEAE-cellulose was eluted with 0.06 M phosphate buffer until the optical density at 280 nm was essentially zero. This fraction contained the β-ketoacetyl-CoA thiolase activity. The HMG-CoA synthase was eluted from the column with 0.1 M phosphate buffer (pH 7.2) containing 0.5 mM DTT and […] EGTA, and was virtually free of all thiolase activity. The protein was precipitated by the addition of ammonium sulfate to give 50% saturation. This solution was stirred for 10 minutes at 4° C. and the precipitate collected by centrifugation at 15,000 rpm for 10 minutes. The supernatant was discarded and the precipitate dissolved in a minimum of 0.06 M phosphate buffer, pH 7.2 (about 10 ml) and the enzyme stored at -80° C.
HMG-CoA Synthase Inhibition Assay
Enzyme protein (ca. 24 mg) was added to a solution containing […] Tris-HCl (pH 8.0), 11.7 μM MgCl2, 1.17 μM ethylenediaminetetraacetic acid (EDTA), 0.58 μM dithiothreitol, and the indicated concentrations of the test compound (added as a 2 mg/ml solution in dimethylsulfoxide). The incubation took place in a volume of 0.085 ml at 30° in a shaking water bath. After 5 minutes, […] of a solution containing acetoacetyl-CoA and 0.1 μCi of 1-[^14 C]-acetyl-CoA was added to give a final concentrations of 0.1 and 0.4 μM, respectively. The incubation was continued for 10 more minutes and the reaction stopped by the addition of […] of the assay mixture to 0.2 ml of 6N HCl in a glass scintillation vial. The vial was heated for 1 hour at 120° after which time 0.2 ml more of 6N HCl was again added to each vial and the heating continued for another hour. Following this, 1.0 ml of 0.9% saline was added to each vial and finally 10 ml of scintillation liquid. Radioactivity was determined in a Packard Tri-Carb liquid scintillation counter. Percent inhibition is calculated by the formula: [formula]
IC50 values were determined by plotting the log of the concentration of the test compound verses the percentage inhibition and fitting a straight line to the resulting data by using the least squares method.

`CC[C@@H]1C(=O)N(S(=O)(=O)c2ccc(C)cc2)[C@@H]1COC(=O)c1cccnc1Oc1ccccc1` (relative stereo) [Table I t] showed an IC50 (Table I) of 33 nM. Same read-out and setting: as for `CC[C@@H]1C(=O)N(S(=O)(=O)c2ccc(C)cc2)[C@@H]1COC(=O)c1ccccn1` (relative stereo) [Table I e], the figure is 54 nM. The compound `CC[C@H]1C(=O)N(S(=O)(=O)c2ccc(C)cc2)[C@H]1COS(=O)(=O)c1ccc(C)cc1` (relative stereo) [Table III] returned a half-inhibitory concentration (IC50) (Table III) of 110 nM. `CC[C@@H]1C(=O)N(S(=O)(=O)c2ccc(C)cc2)[C@@H]1COC(=O)c1cccc([N+](=O)[O-])c1` (relative stereo) [Table I k] displayed an IC50 (Table I) of 39 nM. The compound `Cc1ccc(S(=O)(=O)N2C(=O)C(C)(C)C2C=Cc2ccccc2)cc1` (centres unmarked) [Table VI c] came in with an IC50 (Table VI) of 680 nM. `CC[C@@H]1C(=O)N(S(=O)(=O)c2ccc(C)cc2)[C@@H]1COC(=O)c1ccccc1` (relative stereo) [Table I dd] returned an IC50 (Table I) of 110 nM. Consider `CC[C@H]1C(=O)N(S(=O)(=O)c2ccc(C)cc2)[C@H]1COC(=O)NC1CCCCC1` (relative stereo) [Table II w], for which the midpoint of inhibition (Table II), the IC50, lay at 54 nM.

`CC[C@H]1C(=O)N(S(=O)(=O)c2ccc(C)cc2)[C@H]1COC(=O)/C=C/c1cc(OC)c(OC)c(OC)c1` (relative stereo) [Table II t] returned a half-inhibitory concentration (IC50) (Table II) of 38 nM. With `CC[C@@H]1C(=O)N(S(=O)(=O)c2ccc(C)cc2)[C@@H]1COC(=O)/C=C/c1ccc(OC)cc1` (relative stereo) [Table II a], half-maximal inhibition (Table II) (IC50) was put at 9.5 nM. Take `Cc1ccc(S(=O)(=O)N2C(=O)C(C)(C)C2C2OC2c2ccccc2)cc1` (centres unmarked) [Table VI d]: the IC50 (Table VI) is 110 nM.

As to `C=CCOc1c(NC(C)=O)cc(C(=O)OC[C@@H]2[C@H](CC)C(=O)N2S(=O)(=O)c2ccc(C)cc2)cc1OC` (relative stereo) [Table I mm], inhibition (Table I) was half-maximal at 300 nM (IC50).

For orientation: IC50 means the point on the concentration scale where inhibition reaches its midpoint. High values mean lower potency, low ones higher potency.

Values taken from patent US4983597A, “Beta-lactams as anticholesterolemic agents” (Merck & Co., Inc., priority 1989, dated 1991).
